Two compounds from paper PMC5573404, “An aldo-keto reductase is responsible for Fusarium toxin-degrading activity in a soil Sphingomonas strain” (Scientific Reports, 2017) can be followed below.

This assay relates to AKR18A1. As to the kind of experiment: HPLC substrate decrease, Michaelis-Menten fit. The assay is classed as biochemical, Sphingomonas sp. S3-4. As to conditions: 45 °C.

In general, Km refers to the concentration of substrate that gives half-maximal velocity.

For the compound `NC(=O)c1ccc[n+]([C@@H]2O[C@H](COP(=O)(O)OP(=O)(O)OC[C@H]3O[C@@H](n4cnc5c(N)ncnc54)[C@H](OP(=O)(O)O)[C@@H]3O)[C@@H](O)[C@H]2O)c1` [NADP^+], the Km (oxidation of DON, glycine-NaOH pH 10.6) is 0.48 ± 0.07 mM.

Regarding `NC(=O)C1=CN([C@@H]2O[C@H](COP(=O)(O)OP(=O)(O)OC[C@H]3O[C@@H](n4cnc5c(N)ncnc54)[C@H](O)[C@@H]3O)[C@@H](O)[C@H]2O)C=CC1` [NADH], the Km (reduction of 3-oxo-DON, sodium phosphate pH 7.0, printed unit mM is doubtful, probably a misprint for μM (assays use 0.2 mM NADH)) came to 78 ± 28 mM.
